Data as given in ChEMBL document CHEMBL1136945, “Antimalarial activity of thiosemicarbazones and purine derived nitriles” (Bioorg Med Chem Lett, 2009).

Experiments:
Format in all cases: functional, organism-based
Plasmodium falciparum [1] = assay: Antimalarial activity as reduced parasitaemia after 72 hrs against chloroquine-sensitive Plasmodium falciparum 3D7 infected human O+ erythrocytes by DNA stain without pepstatin; settings: 3D7, 72 h
Plasmodium falciparum [2] = assay: (§1) Antimalarial activity as reduced parasitaemia after 72 hrs against chloroquine-resistant Plasmodium falciparum K1 infected human O+ erythrocytes by DNA stain without pepstatin; settings: K1, 72 h
Plasmodium falciparum [3] = assay: as §1; settings: K1, 72 h; remark: listed apart in the source
Plasmodium falciparum [4] = assay: Antimalarial activity as reduced parasitaemia after 72 hrs against chloroquine-sensitive Plasmodium falciparum 3D7 infected human O+ erythrocytes by DNA stain with pepstatin; settings: 3D7, 72 h

SMILES | EC50 (Plasmodium falciparum [1]) [µM] | EC50 (Plasmodium falciparum [2]) [µM] | EC50 (Plasmodium falciparum [3]) [µM] | EC50 (Plasmodium falciparum [4]) [µM]
NC(=S)N/N=C(/CCc1ccccc1)c1cccc(Cl)c1 | > 30 | > 30 | > 30 | –
NC(=S)N/N=C(/C=C/c1ccccc1)c1cccc(C(F)(F)F)c1 | 30 | 30 | 30 | 30
NC(=S)N/N=C(/CCc1ccccc1)c1ccccc1 | > 30 | > 30 | > 30 | –
NC(=S)N/N=C(/CCc1ccccc1)c1cc(C(F)(F)F)cc(C(F)(F)F)c1 | 30 | 30 | 30 | 30
CCC(C)CNc1nc(C#N)nc2c1NCN2C1CCCC1 (stereo not given) | > 30 | > 30 | > 30 | > 30
NC(=S)N/N=C(/c1ccccc1)c1cc(Cl)cc(Cl)c1 | > 30 | > 30 | > 30 | –
CC(Nc1nc(C#N)nc2c1NCN2Cc1ccccc1)c1ccccc1 (stereo not given) | > 30 | > 30 | > 30 | 30
CCCCCCNc1nc(C#N)nc2c1NCN2CC1CCCCC1 | > 30 | > 30 | > 30 | > 30
CCCCCCNc1nc(C#N)nc2c1NCN2C1CCCC1 | > 30 | > 30 | > 30 | > 30
CCCCCCNc1nc(C#N)nc2c1NCN2Cc1ccccc1 | > 30 | > 30 | > 30 | > 30
CC(Nc1nc(C#N)nc2c1NCN2C1CCCC1)c1ccccc1 (stereo not given) | > 30 | 30 | 30 | > 30
N#Cc1nc(NCc2ccc(Cl)cc2)c2c(n1)N(C1CCCC1)CN2 | > 30 | 30 | > 30 | 30
CCCCN1CNc2c(NCc3cccc(C)c3)nc(C#N)nc21 | > 30 | > 30 | > 30 | > 30
N#Cc1nc(NCc2ccccc2)c2c(n1)N(Cc1ccccc1)CN2 | > 30 | > 30 | > 30 | > 30
CCCCN1CNc2c(NCc3ccccc3)nc(C#N)nc21 | > 30 | > 30 | > 30 | > 30
CCCCN1CNc2c(NCc3ccc(C)cc3)nc(C#N)nc21 | > 30 | > 30 | > 30 | > 30
CCCCN1CNc2c(NCc3ccc(OC)cc3)nc(C#N)nc21 | > 30 | > 30 | > 30 | > 30
Cc1ccc(CNc2nc(C#N)nc3c2NCN3CCCO)cc1 | > 30 | > 30 | > 30 | > 30
CCCCN1CNc2c(NCc3ccc(F)cc3)nc(C#N)nc21 | > 30 | > 30 | > 30 | > 30
N#Cc1nc(NCc2ccc(Cl)cc2)c2c(n1)N(CC1CCCCC1)CN2 | > 30 | > 30 | > 30 | > 30
N#Cc1nc(NCc2ccccc2)c2c(n1)N(C1CCCCO1)CN2 (stereo not given) | > 30 | > 30 | > 30 | > 30

SMILES | EC50 (Plasmodium falciparum [1]) [µM] | EC50 (Plasmodium falciparum [2]) [µM] | EC50 (Plasmodium falciparum [3]) [µM] | EC50 (Plasmodium falciparum [4]) [µM]
CC(O)CN1CNc2c(NCc3ccc(Cl)c(Cl)c3)nc(C#N)nc21 (stereo not given) | > 30 | > 30 | > 30 | 30
N#Cc1nc(NCc2ccc(Cl)c(Cl)c2)c2c(n1)N(CC(O)CO)CN2 (stereo not given) | > 30 | > 30 | > 30 | > 30
CCCCN1CNc2c(NCCc3ccccc3)nc(C#N)nc21 | > 30 | > 30 | > 30 | > 30
N#Cc1nc(NCc2ccc(F)cc2)c2c(n1)N(CCCCO)CN2 | > 30 | > 30 | > 30 | > 30
N#Cc1nc(NCc2ccc(F)cc2)c2c(n1)N(Cc1ccccc1)CN2 | > 30 | > 30 | > 30 | > 30
N#Cc1nc(NCCc2ccccc2)c2c(n1)N(Cc1ccccc1)CN2 | > 30 | > 30 | > 30 | > 30
N#Cc1nc(NCc2ccc(Cl)c(Cl)c2)c2c(n1)N(Cc1ccccc1)CN2 | > 30 | 30 | > 30 | 30
N#Cc1nc(NCCc2ccccc2)c2c(n1)N(c1cccnc1)CN2 | > 30 | > 30 | > 30 | > 30
COc1ccc(CN2CNc3c(NCc4ccccc4)nc(C#N)nc32)cc1 | > 30 | > 30 | > 30 | > 30
N#Cc1nc(NCc2ccc(Cl)cc2)c2c(n1)N(CCCCO)CN2 | > 30 | > 30 | > 30 | > 30
COCCCN1CNc2c(NCc3ccc(Cl)c(Cl)c3)nc(C#N)nc21 | > 30 | > 30 | > 30 | 30
COc1ccc(CN2CNc3c(NCc4ccc(Cl)cc4)nc(C#N)nc32)cc1 | > 30 | > 30 | > 30 | 30
N#Cc1nc(NCc2ccc(Cl)cc2)c2c(n1)N(Cc1cccc(C(F)(F)F)c1)CN2 | > 30 | 30 | > 30 | 30
COC(CCN1CNc2c(NCc3ccc(Cl)c(Cl)c3)nc(C#N)nc21)OC | > 30 | > 30 | > 30 | 30
N#Cc1nc(NCc2ccc(Cl)c(Cl)c2)c2c(n1)N(CCCC(=O)O)CN2 | > 30 | > 30 | > 30 | > 30
N#Cc1nc(NCc2cccc(-c3cc(Cl)cc(Cl)c3)c2)c2ncn(CCCO)c2n1 | > 30 | > 30 | > 30 | > 30
N#Cc1nc(NCc2cccc(-c3ccc(Cl)c(Cl)c3)c2)c2ncn(CCCO)c2n1 | > 30 | > 30 | > 30 | > 30
N#Cc1nc(NCc2ccc(Br)cc2)c2c(n1)N(CCCc1ccccc1)CN2 | > 30 | > 30 | > 30 | > 30
CCCCN1CNc2c(NCc3ccc(Cl)c(Cl)c3)nc(C#N)nc21 | > 30 | > 30 | > 30 | 30
N#Cc1nc(NCc2cccc(Cc3cccc(Cl)c3)c2)c2ncn(CCCO)c2n1 | > 30 | > 30 | > 30 | > 30
CN(C)c1cccc(-c2cccc(CNc3nc(C#N)nc4c3ncn4CCCO)c2)c1 | > 30 | > 30 | > 30 | > 30

SMILES | EC50 (Plasmodium falciparum [1]) [µM] | EC50 (Plasmodium falciparum [2]) [µM] | EC50 (Plasmodium falciparum [3]) [µM] | EC50 (Plasmodium falciparum [4]) [µM]
CC(C)Oc1ccccc1-c1cccc(CNc2nc(C#N)nc3c2ncn3CCCO)c1 | 30 | 30 | 30 | 30
CCC(C)CNc1nc(C#N)nc2c1NCN2Cc1ccccc1 (stereo not given) | > 30 | > 30 | > 30 | 30
Cc1cccc(CNc2nc(C#N)nc3c2NCN3C2CCCC2)c1 | > 30 | > 30 | > 30 | > 30
CCCCN1CNc2c(NCc3ccc(Br)cc3)nc(C#N)nc21 | > 30 | > 30 | 30 | 30
CCCCN1CNc2c(NCc3ccc(Cl)cc3)nc(C#N)nc21 | > 30 | > 30 | 30 | 30
CCCCN1CNc2c(NC(C)c3ccccc3)nc(C#N)nc21 (stereo not given) | > 30 | 30 | 30 | 30
N#Cc1nc(NCc2ccc(-c3ccsc3)cc2)c2ncn(CCCO)c2n1 | 30 | 30 | 30 | 30
Cc1ccc(/C(=N/NC(N)=S)c2cc(C(F)(F)F)cc(C(F)(F)F)c2)cc1 | 30 | 30 | 30 | 30
Cc1ccccc1-c1cccc(CNc2nc(C#N)nc3c2ncn3CCCO)c1 | 30 | 30 | 30 | 30
COc1ccc(CNc2nc(C#N)nc3c2NCN3Cc2ccccc2)cc1 | > 30 | > 30 | > 30 | > 30
Cc1ccc(CNc2nc(C#N)nc3c2NCN3Cc2ccccc2)cc1 | > 30 | > 30 | > 30 | > 30
N#Cc1nc(NCc2ccc(Cl)c(Cl)c2)c2c(n1)N(CCCO)CN2 | > 30 | > 30 | > 30 | > 30
N#Cc1nc(NCc2ccc(-c3cccs3)cc2)c2ncn(CCCO)c2n1 | 30 | 30 | 30 | 30
COCC(CN1CNc2c(NCc3ccc(Cl)c(Cl)c3)nc(C#N)nc21)OC (stereo not given) | > 30 | > 30 | > 30 | 30
N#Cc1nc(NCc2ccccc2)c2c(n1)N(CCCO)CN2 | > 30 | > 30 | > 30 | > 30
N#Cc1nc(NCc2ccc(Br)cc2)c2c(n1)N(Cc1ccccc1)CN2 | > 30 | 30 | 30 | 30
N#Cc1nc(NCc2ccccc2)c2c(n1)N(Cc1cccc(C(F)(F)F)c1)CN2 | 30 | 30 | 30 | 30
COc1ccc(CNc2nc(C#N)nc3c2NCN3C2CCCC2)cc1 | > 30 | > 30 | > 30 | > 30
N#Cc1nc(NCc2ccc(Cl)cc2)c2c(n1)N(Cc1ccccc1)CN2 | > 30 | 30 | > 30 | 30
CC(=O)Nc1ccc(CNc2nc(C#N)nc3c2ncn3CCCO)cc1 | 30 | 30 | 30 | 30
